Experimental findings from ChEMBL document CHEMBL3046272, “Tolerance of two Bifora radians Bieb populations to ALS inhibitors in winter wheat” (2012) are described below.

Assay [1] deals with Bifora radians. Description: Herbicidal activity against ALS-inhibiting herbicide-resistant two to four-leaf stage Bifora radians infested wheat field at ED50 applied by spraying relative to ALS-inhibiting herbicide-sensitive Bifora radians. It is filed as functional.
Assay [2] relates to Bifora radians. In words: Herbicidal activity against ALS-inhibiting herbicide-resistant six to eight-leaf stage Bifora radians infested wheat field at ED90 applied by spraying relative to ALS-inhibiting herbicide-sensitive Bifora radians. It is filed as functional.
For assay [3], the system named is Bifora radians. In words: Herbicidal activity against ALS-inhibiting herbicide-resistant four to six-leaf stage Bifora radians infested wheat field at ED50 applied by spraying relative to ALS-inhibiting herbicide-sensitive Bifora radians. It is filed as functional.
Assay [4] has as its system Bifora radians. In words: Herbicidal activity against ALS-inhibiting herbicide-resistant six to eight-leaf stage Bifora radians infested wheat field at ED50 applied by spraying relative to ALS-inhibiting herbicide-sensitive Bifora radians. The format is functional.
Assay [5] concerns Bifora radians. In words: Herbicidal activity against ALS-inhibiting herbicide-resistant two to four-leaf stage Bifora radians infested wheat field at ED90 applied by spraying relative to ALS-inhibiting herbicide-sensitive Bifora radians. It is filed as functional.
The subject of assay [6] is Bifora radians. In words: Herbicidal activity against ALS-inhibiting herbicide-resistant four to six-leaf stage Bifora radians infested wheat field at ED90 applied by spraying relative to ALS-inhibiting herbicide-sensitive Bifora radians. The format is functional.
Assay [7] concerns Bifora radians. In words: Herbicidal activity against ALS-inhibiting herbicide-resistant four to six-leaf stage Bifora radians infested wheat field at 15 to 20 g/ha applied by spraying measured after 14 to 56 days post treatment. It is filed as functional, organism-based.
The test system of assay [8] is Bifora radians. Description: Herbicidal activity against ALS-inhibiting herbicide-resistant six to eight-leaf stage Bifora radians infested wheat field at 15 to 20 g/ha applied by spraying measured after 14 to 56 days post treatment. It is filed as functional, organism-based.
Assay [9] deals with Bifora radians. In words: Herbicidal activity against ALS-inhibiting herbicide-resistant two to four-leaf stage Bifora radians infested wheat field at 15 to 20 g/ha applied by spraying measured after 14 to 56 days post treatment. The format is functional, organism-based.

The source made the active and inactive calls. No cut-off for these calls is given here.

Turning to `COC(=O)c1ccccc1S(=O)(=O)NC(=O)N(C)c1nc(C)nc(OC)n1` [TRIBENURON METHYL], the Ratio with Bifora radians [1] was found to be 1.7; in the assay on Bifora radians [2] it was 2.4; in the assay with Bifora radians [3], 1.8; in the assay with Bifora radians [4] it was 2; in the assay on Bifora radians [5], 1.8; with Bifora radians [6], 1.9.

In the case of `COc1nc(C)nc(NC(=O)NS(=O)(=O)c2ccccc2Cl)n1` [CHLORSULFURON], the result with Bifora radians [7], in the assay with Bifora radians [8] and in the assay with Bifora radians [9] was Active. The Ratio in the assay on Bifora radians [1] is given as 1.9; in the assay with Bifora radians [2], 2; in the assay with Bifora radians [3] it was 1.8; in the assay with Bifora radians [4], 2.3; in the assay with Bifora radians [5] it was 1.6; in the assay with Bifora radians [6], 1.6.
